Measured values as given in article PMC12077799, “Fragment-based drug discovery for transthyretin kinetic stabilisers using a novel capillary zone electrophoresis method” (PLOS One, 2025).
Where two headings read alike, the source gives them in different places.

How the values were obtained:
[1] = target: T1, Human transthyretin (TTR) thyroxine binding sites (Homo sapiens, UniProt P02766); assay: TTR CZE Free Probe Peak Height Restoration (FPPHR) assay, 8-ANS displacement
T1 construct: purchased SCIPAC (Sittingbourne, Kent, UK) P171-1
Description: CZE assays development and fragment screening were performed on a Beckman P/ACE MDQ capillary electrophoresis system (Beckman Coulter Inc., Brea, CA) operated by 32 Karat™ software. All capillaries (Polymicro Technologies, Phoenix, AZ) used were internally coated with polyvinyl alcohol and of around 30 cm in length, 75 microns in internal diameter. Capillary temperature was maintained at 20 °C by recirculating fluorinated fluid coolant during electrophoresis. Sample trays and buffer trays temperature were maintained at 4°C and ambient respectively. For every electrophoretic run, the capillary was pressure rinsed and prefilled with electrophoresis buffer also known as background electrolyte (termed as Running Buffer hereafter) before injection. After each electrophoretic run, the capillary was rinsed with Running Buffer and H2O by pressure (20 psi for 1 minute). Three Running Buffers (RB), A: 20 mM Tris pH 7.5, 1 mM KCl, 1.62 mM NaCl; B: 20 mM HEPES pH 7.0, 2 mM CaCl2 and C: 20 mM HEPES pH 7.0, 2 mM CaCl2, 1% DMSO were used. All CE traces were analysed by 32Karat™ Software with a built-in automatic peak integration algorithm.
Control 1 Inject Buffer (IB) containing 30 μM 8-ANS was prepared by mixing 1 μL of 3 mM 8-ANS DMSO stock with 99 μL of Running Buffer B in a 0.2 mL PCR tube. Control 2 Inject Buffer was prepared by mixing 1μL of 3 mM 8-ANS DMSO stock with 20 μL of 100 μM tetrameric TTR stock in Running Buffer B and 79 μL of Running Buffer B. The final concentrations (f/c) were 8-ANS 30 μM, TTR 20 μM and 1% DMSO v/v.
The maximum Free Probe Peak Height (Control 1 Peak Height) was determined by Outlet Injection (see Fig 1) of Control 1 with an injection pressure of 0.5 psi for 5 seconds (equivalent to ≈ 20–30 nL). An identical injection of Control 2 provides the minimum Free Probe Peak Height (Control 2 Peak Height) enabling calculation of % of bound and unbound, i.e., free 8-ANS. To determine the 8-ANS peak height in Control 1 and Control 2, the capillary was prefilled with Buffer C and electrophoresis carried out at 10 kV (Normal Polarity, Fig 1) with UV monitoring at 230 nm. For displacement analysis, ligand DMSO stock was diluted in Buffer B and used to fill the capillary as the Running Buffer. Electrophoresis commenced after injection of Control 2, thus the injected 8-ANS-TTR complex migrates inside a capillary filled with the test ligand. The observed 8-ANS peak height is defined as Sample Peak Height and the displaced 8-ANS can be calculated as:
\% of Free Probe Peak Height Restoration= Sample Peak Height−Control 2 Peak Height/Control 1 Peak Height−Control 2 Peak Height

[2] = target: T1, Human transthyretin (TTR) thyroxine binding sites; assay: as above; conditions: 30 μM 8-ANS with 20 μM TTR
[3] = target: TTR thyroxine binding sites; conditions: cited from earlier work
[4] = target: T2, Human transthyretin (TTR) (Homo sapiens, UniProt P02766); assay: Co-crystallisation of TTR-ligand complex, X-ray hit confirmation; format: binding
T2 construct: purchased SCIPAC (Sittingbourne, Kent, UK) P171-1
Description: Crystals were grown by vapor diffusion using a published crystallisation cocktail (100 mM HEPES pH 7.5, 200 mM CaCl2, 28% v/v PEG400) at 21 °C [29]. The hanging drop contained 1 μL of crystallisation cocktail, 1 μL of diluted ligand and 1 μL of TTR protein solution (85 μM). […] Crystals were harvested and flash cooled in a N2 cryostream or dipped into liquid ethane without cryoprotectant. Data was collected at Diamond Light Source (Oxon, UK) beamline I24, I04 or I04-1 (Pilatus 6M or ADSC Q315) or the European Synchrotron Radiation Facility (ESRF, Grenoble, France) beamline ID29 (Pilatus 6M-F) or in-house (Bruker X8 Diffractometer with APEXII CCD detector). Crystal unit cell was initially indexed by software MOSFLM [30] and LABELIT [31] within the EDNA [32] automatic data processing workflow. Diffraction image integration was performed by XDS [33] and reflection intensities were scaled by SCALA [34] or by PROTEUM2 if collected in-house. Phases were obtained by molecular replacement method using PHASER [35], 1DVQ from the Protein Data Bank (PDB) was used as the search model. Atomic positions of the initial model were refined by REFMAC5 [36]. Model building and ligand fitting was completed using COOT [37]. Model graphics were generated using CCP4MG [38]. Crystallographic statistics of all structures can be found in S4 Table.

TTR = target: T3, TTR (Homo sapiens, UniProt P02766); assay: Isothermal titration calorimetry (ITC); format: binding; conditions: for Kd: 25 °C, PBS pH 7.8, 3% DMSO
T3 construct: purchased SCIPAC (Sittingbourne, Kent, UK) P171-1
Description: All ITC experiments were conducted on an iTC200 calorimeter (GE Healthcare), and the settings were 25 °C, stir at 1000 RPM, 1–2 μL injection spaced with 100–150 seconds, reference power: 6 μcal/sec. Isotherms were fitted using ORIGIN 7 software (OriginLab, MA, USA). To prepare TTR ITC protein solution (5 mL), purified and freeze-dried human TTR was weighted and dissolved in 310 μL of pure water. The reconstituted protein solution was then desalted by spin column (Bio-Rad, Bio-Gel P6) and the eluted volume was transferred to a 15mL falcon tube. The protein solution was further diluted with 10x Phosphate Buffered Saline (PBS, 500 μL), DMSO (150 μL) and water, (f/c: 4.3 mM Na2HPO4, 137 mM NaCl, 2.7 mM KCl, 1.47 mM KH2PO4, 3% DMSO v/v, TTR 19.35–25 μM, pH 7.8). UV A260/280 was measured to obtain the actual protein concentration using a calculated extinction coefficient of 18450 M^-1 cm^-1. To prepare ligand ITC solution (1 mL), 30 μL of ligand stock in DMSO was diluted with 10x PBS (100 μL) and water (f/c: 4.3 mM Na2HPO4, 137 mM NaCl, 2.7 mM KCl, 1.47 mM KH2PO4, 3% DMSO v/v, Ligand 280–600 μM, pH 7.8).

[5] = target: T4, TTR in undiluted normal human reference plasma (Homo sapiens, UniProt P02766); assay: 125I-T4 displacement assay in neat normal human plasma; format: binding; conditions: for IC50: neat normal human plasma, 4-parameter logistic fit
T4 construct: The TTR in plasma was immunoprecipitated by sheep anti-human prealbumin polyclonal antibody; tissue Precision Biologic Inc., Nova Scotia, Canada
Source text: The assay was adapted from one described previously. Briefly, test ligand and ^125I-T4 (Perkin Elmer Inc., Waltham, MA) were mixed with undiluted normal human reference plasma (Precision Biologic Inc., Nova Scotia, Canada). The TTR in plasma was immunoprecipitated by sheep anti-human prealbumin polyclonal antibody (The Binding Site Group Ltd., Birmingham, UK). The immunoprecipitate was washed with buffer and their radioactivity measured with a 2470 WIZARD automatic gamma counter (Perkin Elmer Inc., Waltham, MA). […] Percentage of total radioligand binding for samples of different ligand concentration was then calculated as follows: […]
To calculate IC50 values, percentage of total radioligand binding at different concentration points were entered in SigmaPlot™ 11.0. Titration curves were done in triplicates with a minimum of 5 data points fitted by 4-Parameter Logistic Function.

[6] = N = number of non-hydrogen atoms

O=S(=O)(O)c1cccc2cccc(Nc3ccccc3)c12 [Compound 8-ANS, 8-Anilino-1-Naphthalenesulfonic acid]
% of 8-ANS bound to TTR, deduced from free 8-ANS peak heights ([1]; 30 μM 8-ANS with 20 μM TTR): around 60% | % of 8-ANS bound to TTR, deduced from free 8-ANS peak areas [2]: ~35% | Kd ([3]; read-out: Kd1, 8-ANS at TTR thyroxine binding sites): 1050 nM | Kd ([3]; read-out: Kd2, 8-ANS at TTR thyroxine binding sites): 4790 nM | Kd ([3]; read-out: previously reported Kd values): 1000 to 5000 nM

Cc1n[nH]c(C)c1-c1cccc2cccnc12 [Compound 94320297]
FPPHR % tested at 10 µM ([1]; compound 10 µM in Running Buffer, 10% minimum for a binder): 33.32% tested at 10 µM | FPPHR % at 50 μM ([1]; compound 50 μM in Running Buffer, 10% minimum for a binder): 59.77% | Confirmed by X-ray ([4]; fragment seen in ligand-omitted difference density at >= 2σ in one or both binding sites, full or partial density): Yes 9H7K | Kd (TTR; read-out: ITC Kd1 ± SD (N = 3)): 64 nM | Kd (TTR; read-out: ITC Kd2 ± SD (N = 3)): 910 nM | Kd1 LE (Ligand Efficiency, ΔG/N) (TTR; [6]): 0.58 kcal/mol | Kd2 LE (Ligand Efficiency, ΔG/N) (TTR; [6]): 0.48 kcal/mol | IC50 ([5]; read-out: Mean 125I-T4 IC50 ± SD (N = 3)): 18900 ± 6140 nM

Nc1cc(Cl)cc(Cl)c1 [3,5-Dichloroaniline, reference compound]
change of free 8-ANS peak height with compound in the Running Buffer ([1]; in words, concentrations (e.g. Tafamidis 10 µM, Diphenylamine 250 μM, Verapamil 300 µM, Acetazolamide 500 µM)): significant free 8-ANS peak height increase | ligand electron density, binding sites occupied in co-crystal structure ([4]; in words): only observed in one site | IC50 [5]: 802000 ± 319000 nM | 125I-T4 displacement at plateau ([5]; neat plasma, exemplary curve): 60% | total radioligand binding at plateau ([5]; neat plasma, exemplary curve): around 40%
